Measured values reported in US12054495B2, “Substituted macrocyclic compounds and related methods of treatment” (Alkermes, Inc., priority 2019, dated 2024).
Read-outs that look alike come from different tables or passages of the source.

How the values were obtained:
[1] = amide bond, HATU/DIEA, 2.0 h
MDR1 = assay: MDCK-MDR1 permeability assay; format: in vitro ADME; settings: dog; for Papp A→B at 2 h, 3 μM: MDCK-MDR1, MDCK-MDR1 cells, apical to basolateral, 3 μM test compound, 2 hours at 37 degrees C; for efflux ratio at 2 h, 3 μM: MDCK-MDR1, Papp (basolateral to apical) divided by Papp (apical to basolateral), MDCK-MDR1 cells, read-out: Efflux ratio (ER)
Protocol: The bidirectional permeability (Apical to Basal and Basal to Apical directions) of test compounds in MDCK-MIDR1 cells were evaluated using MDCK-MIDR1 cells seeded in Solvo PreadyPort™ MIDCK 96-well plate. Once the plate was received from ReadyCell (Barcelona, Spain), it was treated as per PreadyPort™ user's manual.
For the Apical to Basolateral (A→B) permeability, 80 μL of test compound (3 μM) co-dosed with LY (Lucifer Yellow) (100 μM) in HBSS (Hank's Balanced Salt Solution) assay buffer was added to the donor side (A) while 250 μL of HBSS buffer was added to the receiver side (B). For the Basolateral to Apical (B→A) permeability, 255 μL of test compound (3 μM) in HBSS assay buffer was added to the donor side (B) while 75 μL of HBSS buffer containing LY (100 μM) was added to the receiver side (A).
The plate was placed in an incubator set at 37 degrees C. After 10 minutes of pre-warming, 5 μL aliquot was taken from donor compartment and set aside as the dosing solution. The MDCK-MDR1 incubation plate was placed back into the incubator for 2 hours of incubation at 37 degrees C. After 2 hours of incubation, 25 μL and 5 μL aliquots were removed from the receiver and donor sides, respectively. To the 5 μL aliquots taken from the donor sides (before and after a 2-hour incubation) were diluted with 20 μL of the HBSS buffer. All samples were mixed with 150 μL with acetonitrile containing internal standard (IS) and 200 μL water, and analyzed by LC-MS/MS.
The apparent permeability (Papp) was calculated using the following formula: Papp=dQ/dt×1/A×C0 where: • dQ/dt: amount of translocated material over incubation time (nmol/s) • A: area of insert (0.14 cm^2 for PreadyPort™ MDR1-96) • C0: initial concentration of product applied in apical (A→B) or basal (B→A) compartment (nmol/mL)
The efflux ratio (ER) was measured by dividing the Papp (basolateral to apical direction) by Papp (apical to basolateral direction). It is a general measure of the involvement of active processes. An ER>2 is considered positive for active transport.
The data reported in Table 3 were obtained according to the MDCK-MIDR1 permeability assay described above.

[2] = Hepatocytes stability assay (human hepatocytes); format: in vitro ADME; settings: both sexes, cryopreserved hepatocytes, 1 μM test compound, 1×10^6 cell/mL, 37 degrees C, read-out: CLint (μL/min/million cells)
Protocol: (§1) In vitro metabolic stability was assessed using cryopreserved hepatocytes from male Sprague Dawley rats and a pool of 50 mixed gender humans (BioIVT, Baltimore, MD). The incubation mixtures were prepared by mixing 250 μL of pre-warmed KHB (Krebs-Henseleit buffer) containing 2×10^6 cell/mL of hepatocytes with 250 μL of pre-warmed KHB buffer containing 2 μM of test compounds in a 48-well plate, giving a final concentration of 1 μM test compound (0.1% DMSO) and 1×10^6 cell/mL of hepatocytes. The reaction mixture was incubated at 37 degrees C. A 50 μL aliquot of incubation mixture was taken at time points (0, 15, 30, 60, 120 and 240 minutes) and transferred into a 96-well plate containing 300 μL ice-cold acetonitrile (containing 30 ng/mL of labetalol and 10 ng/mL of Naltrexone-d3 as internal standards) and immediately placed in ice to terminate the reaction. Samples were centrifuged, and supernatants were transferred into 96-well plates for liquid chromatography with tandem mass spectrometry (LC-MS/MS) analysis to monitor the depletion of the test compound.
(§2) Data was calculated as percent remaining by assuming zero-minute time point peak area ratio (analyte/IS) as 100% and dividing remaining time point peak area ratios by zero-minute time point peak area ratio. Data were fitted to a first-order decay model to determine half-life. From a plot of log (ln) peak area against time, the slope of the line was determined. Subsequently, half-life (T1/2) and intrinsic clearance (CLint) were calculated using the equations below: Elimination rate constant (k)=(−slope) Half-life (T1/2)min=0.693/k Intrinsic Clearance (CLint) (mL/min/million cells)=(V×0.693)/T1/2 V=incubation volume mL/number of cells The in vitro T1/2 was converted to in vitro intrinsic clearance (CLint,hep) in units of mL/min/kg using the formula shown below:
(§3) [formula] The in vitro intrinsic clearance (CLint,hep) was scaled to in vivo hepatic clearance (CL,hep) using the following equation which was adapted from a well-stirred model.
(§4) [formula] where Q is the liver blood flow and fu is the fraction unbound (assumed to be unity in this case). All parameters used in the calculation are shown below (Table 4).
(§5) The extraction ratio (ER) was calculated by dividing the hepatic clearance of a compound to the liver blood flow. The data reported in Table 5 were obtained according to the human hepatocytes stability assay described above.

human hepatocytes = assay: Hepatocytes stability assay (human hepatocytes); format: in vitro ADME; settings: scaled hepatic clearance divided by liver blood flow, fu assumed unity
Protocol: as §1, §2, §3, §4, §5

[3] = biological target: T1, human orexin-2 receptor (OX2R) (Homo sapiens, UniProt O43614); assay: Human OX2R IP1 assay; format: cell-based; settings: T-Rex CHO cells stably overexpressing human OX2R, IP1 accumulation, 1 hr at 37 degrees C; mean EC50; ∧ = racemic mixture
T1 construct: expressed in transfected cells
T1 sequence (O43614 1-444): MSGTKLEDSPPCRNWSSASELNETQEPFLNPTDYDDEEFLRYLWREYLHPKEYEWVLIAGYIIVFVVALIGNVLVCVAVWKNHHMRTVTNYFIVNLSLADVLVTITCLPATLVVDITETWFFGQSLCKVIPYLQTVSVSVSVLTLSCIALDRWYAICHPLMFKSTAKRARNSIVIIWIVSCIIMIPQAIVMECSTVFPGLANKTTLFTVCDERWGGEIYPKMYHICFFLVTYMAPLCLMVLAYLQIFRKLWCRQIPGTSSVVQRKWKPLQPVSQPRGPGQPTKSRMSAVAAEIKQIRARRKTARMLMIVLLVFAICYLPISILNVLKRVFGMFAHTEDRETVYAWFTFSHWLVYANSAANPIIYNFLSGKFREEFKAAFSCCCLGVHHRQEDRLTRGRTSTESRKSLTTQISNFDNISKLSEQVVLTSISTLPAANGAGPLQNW
Protocol: T-Rex CHO cells stably overexpressing the human orexin-2 receptor (OX2R) were induced overnight with 1 μg/mL of doxycycline in a T225 flask. 24 hours post induction, cells were lifted with accutase and plated into a 384-well proxy plate at 30,000 cells/well. Cells were then treated with different test compounds in 1× stimulation buffer containing 10 mM Hepes, 1 mM CaCl2), 0.5 mM MgCl2, 4.2 mM KCl, 146 mM NaCl, 5.5 mM glucose, and 50 mM LiCl, pH 7.4, for 1 hr at 37 degrees C. Following incubation, the reaction was terminated by the addition of detection mix, which is composed of IP1-d2 and anti-IP1-cryptate diluted in lysis buffer as well as 1× stimulation buffer. The plates were allowed to incubate for 1 hour at room temperature and were then read in the EnVision® multimode plate reader, measuring inositol phosphate levels.
Cisbio IP1 is a cell-based functional assay quantifying the accumulation of inositol monophosphate (IP), a metabolite released as a result of orexin 2 receptor activation through the phospholipase C-Gq signaling pathway. This is a competitive immunoassay in which the IP1 produced by the cells upon receptor activation competes with the IP1 analog coupled to the d2 fluorophore (acceptor) for binding to an anti-IP1 monoclonal antibody labeled with Eu cryptate (donor). The measured HTRF-FRET based signal is inversely proportional to the IP1 concentration produced.
The EC50 values reported in Table 2 were obtained according to the human OX2R IP1 assay described above. Data are the mean EC50 values ±S.E.M. The compound methyl (2R,3S)-3-((methylsulfonyl)amino)-2-(((cis-4-phenylcyclohexyl)oxy)methyl)-piperidine-1-carboxylate is a reference compound which is disclosed in Example 5 of PCT publication no. WO2017/135306.

Row | Papp A→B at 2 h, 3 μM (MDR1) [×10⁻⁶ cm/s] | efflux ratio at 2 h, 3 μM (MDR1) | hepatocyte CLint at 1 μM [2] [µL/min/1e6 cells] | Extraction Ratio (ER) (human hepatocytes) | EC50 [3] [µM] | SMILES | also measured
1 | – | – | – | – | – | CC(C)(C)OC(=O)N([C@H]1CCN2C(=O)COc3ccccc3C3CCC(CC3)OC[C@@H]12)S(C)(=O)=O | ring closure, isolated yield ([1]; from CC(C)(C)OC(=O)N([C@H]1CCN[C@H]1COC1CCC(c2ccccc2OCC(=O)O)CC1)S(C)(=O)=O, 13-membered ring, MeCN, 2.4 mM): 31%
2 | – | – | – | – | – | CC(C)(C)OC(=O)N([C@H]1CCN2C(=O)COc3ncccc3C3CCC(CC3)OC[C@@H]12)S(C)(=O)=O | ring closure, isolated yield ([1]; from CC(C)(C)OC(=O)N([C@H]1CCN[C@H]1COC1CCC(c2cccnc2OCC(=O)O)CC1)S(C)(=O)=O, 13-membered ring, MeCN, 9.5 mM): 41.4%
3 | – | – | – | – | – | CC(C)(C)OC(=O)NC1CCCN2C(=O)COc3cnccc3C3CCC(CC3)OCC12 (centres unmarked) | ring closure, isolated yield ([1]; from CC(C)(C)OC(=O)NC1CCCNC1COC1CCC(c2ccncc2OCC(=O)O)CC1, 13-membered ring, MeCN, 0.22 mM): 23.4%
4 | – | – | – | – | – | CC(C)(C)OC(=O)N[C@H]1CCCN2C(=O)CCCOc3ccccc3C3CCC(CC3)OC[C@@H]12 | ring closure, isolated yield ([1]; from CC(C)(C)OC(=O)N[C@H]1CCCN[C@H]1COC1CCC(c2ccccc2OCCCC(=O)O)CC1, 15-membered ring, MeCN/DMF 8:1, 18.1 mM): 77.9%
5 | – | – | – | – | – | CC(C)(C)OC(=O)N[C@H]1CCCN2C(=O)COc3cccc(F)c3C3=CCC(CC3)OC[C@@H]12 (some centres unmarked) | ring closure, isolated yield ([1]; from CC(C)(C)OC(=O)N[C@H]1CCCN[C@H]1COC1CC=C(c2c(F)cccc2OCC(=O)O)CC1, 13-membered ring, MeCN, 2.1 mM): 71%
6 | 0.08 | 22 | < 1.9 | <0.22 | 0.1 to 1 | CS(=O)(=O)N[C@@H]1CCCN2C(=O)COc3cccnc3[C@H]3CC[C@H](CC3)OC[C@H]12 (racemic) [Compound 15] | –
7 | 0.15 | 12 | < 1.9 | <0.22 | 0.1 to 1 | CS(=O)(=O)N[C@@H]1CCCN2C(=O)COc3ccncc3[C@H]3CC[C@H](CC3)OC[C@H]12 (racemic) [Compound 45] | –
8 | 0.09 | 49 | 3 | 0.31 | < 0.1 | CS(=O)(=O)N[C@@H]1CCCN2C(=O)COc3cnccc3[C@H]3CC[C@H](CC3)OC[C@H]12 (racemic) [Compound 47] | –
